From US20200071380A1, “COMBINATION THERAPIES COMPRISING SIRP ALPHA-BASED CHIMERIC PROTEINS” (Shattuck Labs, Inc., priority 2018, published 2020) come the findings set out here.

In data set [1] the test system is low EGFR-expressing Chronic myeloid leukemia (CML) cell line (K562). As to the kind of experiment: Macrophage engulfment of K562 cells. Type of data set: cell-based, human. The conditions noted are these: K562, negative control cell line.
A further data set concerns parental CHOK1 cells. As to the kind of experiment: Flow cytometry binding to parental CHOK1 cells. From the text:
Scale is shown and yellow arrows correspond with each identified monomer. A schematic of the hexamer species is shown to the right, depicting dimerization of the Fc domain and trimerization of the CD40L domain. […] Recombinant hSIRPα-Fc, hCD40L-Fc, and hIgG1 were used as positive controls. […] In both panels, the CHOK1 Parental is on the left and the CHOK1/hCD47 is on the right. […] For both graphs, the CHOK1 Parental is on the bottom. […] In this figure, the control is the top curve, the SIRPα-Fc-CD40L is the middle curve, and the anti-CD47 is the bottom curve.
The extracellular domain (ECD) of SIRPα and the ECD of CD40L were fused via an antibody Fc domain to generate SIRPαECD-Fc-CD40LECD chimeric proteins. When human proteins were used, the chimeric protein is referred to as hSIRPα-Fc-CD40L; when murine proteins were used, the chimeric protein is referred to as and mSIRPα-Fc-CD40L. […] The purified protein was then analyzed for the presence of each individual domain by Western blotting using anti-SIRPα, anti-Fc, and anti-CD40L antibodies (FIG. 3A, bottom). […] Next, binding affinities for SIRPα-Fc-CD40L to recombinant CD47, CD40, or Fc receptors were evaluated by surface plasmon resonance (SPR). […] A functional ELISA evaluated whether SIRPα-Fc-CD40L could outcompete a commercially available single-sided SIRPα-Fc control for binding to recombinant CD47 (FIG. 3H).
(In general: In flow cytometry, cells or beads pass a laser one at a time.)

For data set [2], the system named is human donor red blood cells (RBCs). In words: In vitro hemolysis assay, human erythrocytes. In kind it is cell-based. As to the method:
FIG. 22B is a graph showing RBCs and test agents that were incubated at 37° C. for 24 hours and then the media was assessed at OD490 for changes in absorbance due to hemoglobin being released from lysing RBCs. […] FIG. 22D are graphs showing that peripheral blood was isolated from mice receiving three IP doses (300 μg) of the murine SIRPα-Fc-CD40L surrogate (arrows). Cell populations were assessed by flow cytometry and included CD20+ B cells, CD110+, CD4+/CD11c+, and CD8+/CD11c+ dendritic cells.
However, the in vitro systems used to test this question have significant limitations, including a complete lack of macrophages in the test system.

The test system of another data set is splenic dendritic cells. In words: In vivo splenic dendritic cell activation. The conditions noted are these: versus antibody treated groups. More on the design: species or system mice. The procedure: For each panel, the samples are (left to right): untreated, sheep RBCs, αCD47 (MIAP301), αSIRPα (P84), mSIRPα-Fc-CD40L, mSIRPα-Fc-CD40L (24 Hrs), and αCD47 (MIAP301) (24 hrs). FIG. 9B is a quantitation of in vivo dendritic cell activation corresponding to FIG. 9A. Shown is the absolute percent of CD4+ and CD8+ dendritic cells; also gated on CD11c and DC1R2. In FIG. 9B, for each panel, the samples are (left to right): untreated, sheep RBCs, αCD47 (MIAP301), αSIRPα (P84), SIRPα-Fc-CD40L (150 μg), SIRPα-Fc-CD40L (300 μg), SIRPα-Fc-CD40L (300 μg) (24 Hrs), and αCD47 (MIAP301) (24 hrs).
An in vivo assay to examine SIRPα/CD47 function in mice was describe in Yi et al., “Splenic Dendritic Cells Survey Red Blood Cells for Missing Self-CD47 to Trigger Adaptive Immune Responses. Immunity. 2015;43(4):764-75) (the contents of which is incorporated by reference in its entirety). This assay detects the activation status of splenic dendritic cells in response to SIRPa/CD47 inhibitors or to infused sheep red blood cells (RBC).
After 6 or 24 hours, mice were euthanized and their spleens excised, dissociated, and assessed by flow cytometry for populations of activated CD4+ dendritic cells (DCs) (FIG. 9A, left panel) or CD8+dendritic cells (FIG. 9A, right panel); both populations of dendritic cells were also positive for MHC II (I-Ab), CD11c, and DC1R2.

Regarding “SIRPα-Fc-CD40L: Generic name of the SIRPα ECD-Fc-CD40L ECD chimeric protein; human or murine version depending on the test system”, in data set [1], the phagocytic activity entry is reported as “no phagocytic activity”. The “binding to parental CHOK1 cells” value in the data set with parental CHOK1 cells was “not to parental CHOK1 cells”. Besides, the hemolysis in vitro result in data set [2] is listed as “did not reveal evidence of hemolysis”. Moreover, in the data set with splenic dendritic cells, the “proportion of overall splenic DCs” value is “higher proportion of overall splenic DCs than was observed in the antibody treated groups”.
